We go through 7 compounds from ChEMBL document CHEMBL6182898, “Design, synthesis and bioevaluation of novel hydrazide derivatives as enhancers of immunotherapy and DNA-damage response in antitumor therapy” (Eur J Med Chem, 2025).

Bounds are passed on as bounds.

The test system of series [1] is 4T1. Put plainly: cells. The note with it: Mus musculus, time 72 hrs. It is filed as functional.
Series [2] relates to B16-F10. Put plainly: cells. The class given is functional. The following applies: Mus musculus, time 72 hrs.
Series [3] concerns the target T1, Histone deacetylase 8 (Homo sapiens, UniProt Q9BY41).
T1 sequence (Q9BY41 whole entry): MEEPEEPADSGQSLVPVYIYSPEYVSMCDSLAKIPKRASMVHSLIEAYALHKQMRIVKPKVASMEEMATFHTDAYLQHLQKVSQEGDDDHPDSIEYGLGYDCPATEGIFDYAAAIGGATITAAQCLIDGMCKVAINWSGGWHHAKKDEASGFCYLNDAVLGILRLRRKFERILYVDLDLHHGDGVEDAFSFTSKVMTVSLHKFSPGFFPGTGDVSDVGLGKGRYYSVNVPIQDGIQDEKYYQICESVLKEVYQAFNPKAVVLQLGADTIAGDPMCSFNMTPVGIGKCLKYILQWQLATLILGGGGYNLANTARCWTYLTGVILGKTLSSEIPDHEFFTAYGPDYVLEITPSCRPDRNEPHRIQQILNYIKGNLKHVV
Put plainly: Inhibition of HDAC8 (unknown origin).

For series [4], the system named is K562. Put plainly: Antiproliferative activity against human K562 cells incubated for 72 hrs by CCK8 assay. The class given is functional, cell-based. The note with it: K562, 72 h. (Tetrazolium dyes change colour on reduction, which living cells bring about.)
Series [5] concerns B16-F10. Put plainly: Antiproliferative activity against mouse B16-F10 cells incubated for 72 hrs by MTT assay. It is filed as functional, cell-based. The following applies: B16-F10, 72 h.
The subject of series [6] is SK-OV-3. Put plainly: cells. The class given is functional. The note with it: Homo sapiens, time 72 hrs.
Series [7] concerns SK-OV-3. Put plainly: Antiproliferative activity against human SK-OV-3 cells incubated for 72 hrs by MTT assay. The following applies: SK-OV-3, 72 h. The class given is functional, cell-based.
A short description of series [8]: Antiproliferative activity against human HK-2 cells incubated for 72 hrs by MTT assay.
For series [9], the target named is Histone deacetylase 3 (Homo sapiens, UniProt O15379). The experiment in a line: Inhibition of HDAC3 (unknown origin).
Series [10] has as its system K562. The experiment in a line: cells. It is filed as functional. The following applies: Homo sapiens, time 72 hrs.
Series [11] concerns HCT-116. The experiment in a line: Antiproliferative activity against human HCT-116 cells incubated for 72 hrs by MTT assay. It is filed as functional, cell-based. The following applies: HCT-116, 72 h.
Series [12] has as its target T2, Protein deacetylase HDAC6 (Homo sapiens, UniProt Q9UBN7).
T2 sequence (Q9UBN7 whole entry): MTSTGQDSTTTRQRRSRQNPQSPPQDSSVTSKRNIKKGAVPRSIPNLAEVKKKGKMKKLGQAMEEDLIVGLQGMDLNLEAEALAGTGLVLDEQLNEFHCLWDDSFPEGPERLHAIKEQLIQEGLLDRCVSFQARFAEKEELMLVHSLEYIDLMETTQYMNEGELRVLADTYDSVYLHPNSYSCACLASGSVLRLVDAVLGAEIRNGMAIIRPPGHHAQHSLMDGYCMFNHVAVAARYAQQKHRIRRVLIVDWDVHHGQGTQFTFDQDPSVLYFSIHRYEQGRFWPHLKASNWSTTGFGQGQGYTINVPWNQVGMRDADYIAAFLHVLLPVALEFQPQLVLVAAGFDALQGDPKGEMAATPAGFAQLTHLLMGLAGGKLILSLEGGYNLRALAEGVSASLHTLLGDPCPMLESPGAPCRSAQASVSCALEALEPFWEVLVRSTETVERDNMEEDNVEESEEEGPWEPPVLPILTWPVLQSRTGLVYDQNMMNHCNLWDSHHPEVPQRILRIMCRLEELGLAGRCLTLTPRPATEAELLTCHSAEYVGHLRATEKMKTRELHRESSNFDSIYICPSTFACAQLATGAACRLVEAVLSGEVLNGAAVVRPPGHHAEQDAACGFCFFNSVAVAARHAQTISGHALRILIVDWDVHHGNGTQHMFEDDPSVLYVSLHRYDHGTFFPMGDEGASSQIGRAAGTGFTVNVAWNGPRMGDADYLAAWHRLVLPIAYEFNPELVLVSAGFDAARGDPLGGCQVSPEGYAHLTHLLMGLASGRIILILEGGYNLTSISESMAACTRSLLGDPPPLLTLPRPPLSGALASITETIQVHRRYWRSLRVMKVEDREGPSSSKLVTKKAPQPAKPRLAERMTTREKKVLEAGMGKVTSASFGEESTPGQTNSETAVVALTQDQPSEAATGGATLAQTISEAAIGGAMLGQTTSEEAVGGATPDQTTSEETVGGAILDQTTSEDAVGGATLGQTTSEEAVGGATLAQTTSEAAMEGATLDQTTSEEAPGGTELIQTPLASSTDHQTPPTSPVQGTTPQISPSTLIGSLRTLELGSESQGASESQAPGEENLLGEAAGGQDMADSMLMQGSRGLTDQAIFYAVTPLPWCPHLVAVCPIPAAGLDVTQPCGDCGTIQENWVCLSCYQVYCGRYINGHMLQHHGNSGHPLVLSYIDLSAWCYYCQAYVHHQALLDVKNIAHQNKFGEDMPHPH
Put plainly: Inhibition of HDAC6 (unknown origin).

Series [13] deals with Histone deacetylase 1 (Homo sapiens, UniProt Q13547). Put plainly: Inhibition of HDAC1 (unknown origin).
The subject of series [14] is 4T1. Put plainly: Antiproliferative activity against mouse 4T1 cells incubated for 72 hrs by MTT assay. The class given is functional, cell-based. The following applies: 4T1, 72 h.
In series [15] the test system is HCT-116. Put plainly: cells. The class given is functional. The following applies: Homo sapiens, time 72 hrs.

Chain of Histone deacetylase 3 (O15379 whole entry): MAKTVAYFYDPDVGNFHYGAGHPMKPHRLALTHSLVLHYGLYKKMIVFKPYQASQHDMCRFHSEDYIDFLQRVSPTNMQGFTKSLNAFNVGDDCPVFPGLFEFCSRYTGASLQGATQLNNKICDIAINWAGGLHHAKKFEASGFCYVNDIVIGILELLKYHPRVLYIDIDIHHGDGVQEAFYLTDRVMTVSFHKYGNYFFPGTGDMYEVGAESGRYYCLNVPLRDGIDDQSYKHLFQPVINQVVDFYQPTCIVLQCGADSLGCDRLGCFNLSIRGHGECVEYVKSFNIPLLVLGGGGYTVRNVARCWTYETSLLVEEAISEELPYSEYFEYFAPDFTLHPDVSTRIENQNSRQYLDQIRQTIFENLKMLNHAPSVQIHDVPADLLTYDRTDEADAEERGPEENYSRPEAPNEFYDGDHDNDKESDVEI
Chain of Histone deacetylase 1 (Q13547 whole entry): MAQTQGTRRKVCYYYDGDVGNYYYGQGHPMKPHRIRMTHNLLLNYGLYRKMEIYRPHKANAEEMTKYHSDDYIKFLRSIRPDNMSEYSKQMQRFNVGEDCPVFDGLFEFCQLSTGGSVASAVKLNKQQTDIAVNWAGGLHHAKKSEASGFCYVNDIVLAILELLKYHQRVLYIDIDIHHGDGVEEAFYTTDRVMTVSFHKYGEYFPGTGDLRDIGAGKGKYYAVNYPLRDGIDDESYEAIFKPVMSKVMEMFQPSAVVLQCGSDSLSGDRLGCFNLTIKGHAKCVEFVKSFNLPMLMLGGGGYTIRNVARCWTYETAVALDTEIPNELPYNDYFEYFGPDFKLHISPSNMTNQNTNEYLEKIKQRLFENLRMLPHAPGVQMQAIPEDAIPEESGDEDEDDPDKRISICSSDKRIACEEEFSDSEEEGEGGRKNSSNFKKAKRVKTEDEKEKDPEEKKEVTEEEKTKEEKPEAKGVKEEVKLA

For orientation: inhibition means the percentage by which the read-out fell short of the control. One may read the IC50 as the concentration needed to halve the response being measured. Turning to `CCCNNC(=O)CCCCCCNC(=O)c1cnc(-c2ccc(F)cc2F)s1`, the inhibition at 10 µM in [1] was less than 20%; in [2], 56%; in series [6] it was 82.1%; in series [10], 70.5%; in [15] it was 79.7%. Further, the half-inhibitory concentration (IC50) in series [3] was greater than 10 µM; in [4] it was 5.65 µM; in [5], 4.74 µM; in [7] it was 7.9 µM; in [9], 0.73 µM; in series [11], 4.77 µM. In addition, the results for the concentration for half-maximal inhibition (IC50) in series [12], in [13] and in series [14] were greater than 10 µM, 0.89 µM and 12.9 µM, respectively. The same compound displayed an IC50 at 72 h in series [8] of 12.2 µM.

On to `CCCNNC(=O)CCCCCCNC(=O)c1cnc(-c2ccc3ccccc3c2)s1`, for which the inhibition at 10 µM in [1] is less than 20%; in series [2] it was 57.6%; in [6], 81.5%; in [10], less than 50%; in series [15], 94.7%. Further, the concentration for half-maximal inhibition (IC50) in series [3] is greater than 10 µM; in series [4] it was 2.71 µM; in series [5], 11.1 µM; in series [7], 4.48 µM; in series [9], 0.55 µM; in series [11], 4.14 µM. The 50% inhibitory concentration (IC50) in series [12] is greater than 10 µM; in [13], 3.26 µM; in series [14] it was 14.4 µM. The same compound displayed an IC50 at 72 h in series [8] of 10.8 µM.

As to `CCCNNC(=O)CCCCCCNC(=O)c1cnc(-c2ccc(Br)cc2)s1`, the inhibition at 10 µM is 53% in [1]; 50.7% in series [2]; 60.8% in series [6]; less than 50% in [10]; 59.3% in [15]. For the same compound, the IC50 was greater than 10 µM in series [3]; 8.12 µM in series [4]; 5.31 µM in [5]; 12.7 µM in [7]; 3.43 µM in [9]; 0.79 µM in [11]. Further, the IC50 in series [12] was greater than 10 µM; in series [13] it was greater than 5 µM; in series [14], 14.4 µM. The compound also returned a half-maximal inhibitory concentration (IC50) at 72 h in series [8] of 13.9 µM.

On to `CCCNNC(=O)c1ccc(NC(=O)c2cnc(-c3ccccc3C)s2)cc1`, for which the inhibition at 10 µM in [1] is 26.4%; in series [2] it was less than 50%; in series [6], 56.2%; in [10], 73.2%; in [15] it was 67.1%. The IC50 in series [3] is greater than 10 µM; in series [4], 3.58 µM; in [5], 12 µM; in [7], 5.57 µM; in series [9], 0.87 µM; in [11], 3.45 µM. In addition, the values for the IC50 in [12], in [13] and in series [14] were greater than 10 µM, 1.62 µM and 14.5 µM, respectively. In series [8], the half-inhibitory concentration (IC50) at 72 h is 11.9 µM.

As to `CCCNNC(=O)c1ccc(NC(=O)c2cnc(-c3cc4ccc5cccc6ccc(c3)c4c56)s2)cc1`, the inhibition at 10 µM in series [1] is less than 20%; in [2], 61.7%; in [6], 77.5%; in series [10] it was less than 50%; in series [15], 69.3%. Further, the 50% inhibitory concentration (IC50) in series [3] is greater than 10 µM; in series [4], 6.05 µM; in series [5], 13.1 µM; in [7], 5.22 µM; in series [9], 0.97 µM; in series [11], 8.42 µM. The values for the IC50 in [12], in [13] and in series [14] were greater than 10 µM, 1.36 µM and 8.02 µM, respectively. Moreover, the IC50 at 72 h in [8] was 11.2 µM.

`CCCNNC(=O)CCCCCNC(=O)c1cnc(-c2ccc(Oc3ccccc3)cc2)s1`: the inhibition at 10 µM in series [1] is 33.8%; in series [2] it was less than 50%; in series [6] it was 68.6%; in series [10], 73.1%; in series [15], 82.6%. Moreover, the IC50 was greater than 10 µM in series [3]; 7.68 µM in [4]; 11.1 µM in [5]; 4.43 µM in series [7]; 1.6 µM in [9]; 3.38 µM in series [11]. The results for the IC50 in [12], in series [13] and in series [14] were greater than 10 µM, greater than 5 µM and 10.5 µM, respectively. In series [8], this compound showed a 50% inhibitory concentration (IC50) at 72 h of 10.8 µM.

In the case of `CCCNNC(=O)CCCCCCNC(=O)c1cnc(-c2ccc(Oc3ccccc3)cc2)s1`, the inhibition at 10 µM in series [1] was 40.8%; in [2], 58%; in series [6] it was 76%; in series [10] it was less than 50%; in series [15] it was 73.1%. For the same compound, the IC50 in series [3] is greater than 10 µM; in series [4], 4.2 µM; in [5], 14.8 µM; in series [7] it was 8.66 µM; in series [9], 1.88 µM; in series [11], 1.07 µM. The figures for the concentration for half-maximal inhibition (IC50) in series [12], in series [13] and in [14] were greater than 10 µM, greater than 5 µM and 11.8 µM, respectively. This compound yielded an IC50 at 72 h in [8] of 14.1 µM.
